Data as given in patent publication US5610174A, “Use of α1A -selective adrenoceptor agonists for the treatment of urinary incontinence” (priority 1995, dated 1997).
Read-outs that look alike come from different tables or passages of the source.

Tests used:
[1] = target: T1, human α2C adrenoceptor (Homo sapiens, UniProt P18825); assay: Inhibition of forskolin stimulated adenylyl cyclase, α2C; type: cell-based; conditions: for Emax: read-out: intrinsic activity (i.a.) α2C
T1 construct: expressed in transfected cells; host or cells: LM(tk-)
T1 sequence (P18825 1-462): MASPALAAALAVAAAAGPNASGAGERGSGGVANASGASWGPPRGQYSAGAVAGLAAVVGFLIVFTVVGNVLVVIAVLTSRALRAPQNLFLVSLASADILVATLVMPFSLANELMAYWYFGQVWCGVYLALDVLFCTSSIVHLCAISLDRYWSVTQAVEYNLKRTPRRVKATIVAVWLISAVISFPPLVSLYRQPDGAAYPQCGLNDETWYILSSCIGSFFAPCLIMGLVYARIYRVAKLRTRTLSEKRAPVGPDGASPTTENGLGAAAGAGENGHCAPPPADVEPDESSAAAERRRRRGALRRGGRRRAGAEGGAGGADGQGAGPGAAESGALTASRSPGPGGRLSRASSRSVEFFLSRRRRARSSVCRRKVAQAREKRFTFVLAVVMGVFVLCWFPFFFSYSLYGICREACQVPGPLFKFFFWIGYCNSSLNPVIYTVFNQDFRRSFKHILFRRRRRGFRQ
Method: α2 -Adrenoceptor-Mediated Inhibition of Forskolin Stimulated Adenylyl Cyclase
The agonist activity of test compounds was assayed by measuring their ability to inhibit adenylyl cyclase in cells stably transfected with each of the three cloned human α2 -adrenoceptors. LM(tk-) cells expressing the α2A - or the α2C -, as well as Y1 cells expressing the α2B -adrenoceptor were used. […] The formation of cyclic AMP was measured in cultures incubated with DMEM containing 1 mM theophylline. Twelve concentrations of the test compounds (from 10 pM to 100 μM) were added to the incubation medium and incubated at 37° C. for 20 min. Following this incubation step, 10 μM forskolin was added to stimulate the formation of cyclic AMP, and the cultures were incubated for another 10 min. The reaction was stopped by replacing the incubation medium with 100 mM HCl . The intracellular levels of cyclic AMP were measured by radioimmunoassay. The data from concentration-response curves was fitted to a four-parameter logistic equation, by non-linear regression analysis, to determine the pEC50 and intrinsic activity.

[2] = target: T2, human α1B adrenoceptor (Homo sapiens, UniProt P35368); assay: Phosphoinositide accumulation in cells expressing α1B; type: cell-based; conditions: for Emax: read-out: intrinsic activity (i.a.) α1B; for stimulation of inositol phosphate production, α1B: result in words
T2 construct: The entire coding region of the α1B receptor (1563 bp); expressed in transfected cells
T2 sequence (P35368 1-520): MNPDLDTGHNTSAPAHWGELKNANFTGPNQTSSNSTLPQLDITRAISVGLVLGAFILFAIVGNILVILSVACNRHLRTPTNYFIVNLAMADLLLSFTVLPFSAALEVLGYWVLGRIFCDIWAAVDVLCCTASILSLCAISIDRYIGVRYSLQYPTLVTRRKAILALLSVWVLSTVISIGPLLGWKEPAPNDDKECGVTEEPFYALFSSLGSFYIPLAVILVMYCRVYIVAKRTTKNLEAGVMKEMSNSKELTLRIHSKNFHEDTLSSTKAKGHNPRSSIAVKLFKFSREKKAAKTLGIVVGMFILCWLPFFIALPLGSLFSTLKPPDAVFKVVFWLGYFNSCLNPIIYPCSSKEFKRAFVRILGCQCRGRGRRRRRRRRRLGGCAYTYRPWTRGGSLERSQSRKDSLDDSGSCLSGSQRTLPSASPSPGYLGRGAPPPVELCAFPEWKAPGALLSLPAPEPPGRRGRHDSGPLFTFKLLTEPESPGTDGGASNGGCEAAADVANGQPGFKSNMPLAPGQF
Method: α1 -Adrenoceptor-Mediated Phosphoinositide Accumulation in Cultured Cell Lines
The agonist activity of test compounds was assayed by measuring their ability to generate phosphoinositide production in cells stably transfected with each of the three cloned human α1 -adrenoceptor subtypes. Cells were plated in 96-well plates and grown to confluence. The day before the assay the growth medium was changed to 100 μl of medium containing 1% serum and 0.5 μCi [^3 H] myo-inositol, and the plates were incubated overnight in a CO2 incubator (5% CO2 at 37° C.). Immediately before the assay, the medium was removed and replaced by 200 μl of PBS containing 10 mM LiCl, and the cells were equilibrated with the new medium for 20 min. During this interval cells were also equilibrated with the antagonist, added as 10 μl aliquot of a 20-fold concentrated solution in PBS.
The [^3 H] inositol-phosphate (IP) accumulation was started by adding 10 μl of a solution containing the agonist. To the first well 10 μl were added to measure basal accumulation, and 11 different concentrations of agonist were assayed in the following 11 wells of each plate row. All assays were performed in duplicate by repeating the same additions in two consecutive plate rows. The plates were incubated in a CO2 incubator for 1 hr. The reaction was terminated by adding 15 μl of 50% (v/v) trichloroacetic acid (TCA), followed by a 40 min incubation at 4° C.
After neutralizing TCA with 40 μl of 1 M Tris, the content of the wells was transferred to a Multiscreen HV filter plate (Millipore) containing Dowex AG1-X8 (200-400 mesh, formate form). The filter plates were prepared adding 200 μl of Dowex AG1-X8 suspension (50% v/v, water:resin) to each well. The filter plates were placed on a vacuum manifold to wash or eluted the resin bed. Each well was washed 2 times with 200 μl of water, followed by 2×200 μ of 5 mM sodium tetraborate/60 mM ammonium formate. The [3H] IPs were eluted into empty 96-well plates with 200 μl of 1.2 M ammonium formate/0.1 formic acid. The content of the wells was added to 3 mls of scintillation cocktail, and the radioactivity was determined by liquid scintillation counting.

[3] = agonist, inhibition of forskolin stimulated adenylyl cyclase, read-out: pEC50 α2C (converted)
[4] = relative to reference full agonist (e.g., norepinephrine = unity)

| Structure (SMILES) | EC50 [1] [nM] | Emax [1] [%] | EC50 [2] [µM] | Emax [2] [%] | stimulation of inositol phosphate production, α1B [2] | EC50 [1, 3] [nM] | Emax [1, 4] [%] | Emax [2, 4] [%] | intrinsic activity (i.a.) α2C [1, 4] | EC50 ([2]; agonist, phosphoinositide accumulation, read-out: pEC50 α1B (converted)) [µM] |
| --- | --- | --- | --- | --- | --- | --- | --- | --- | --- | --- |
| C[C@H](N)[C@H](O)c1ccccc1 [(-)-norephedrine] | 126 | 60 | 31.6 | 0 | – | – | – | – | – | – |
| CNCCc1ccc(O)c(NS(C)(=O)=O)c1 [SK&F 102652] | – | 80 | – | 10 | virtually inactive | – | – | – | – | – |
| CS(=O)(=O)Nc1c(O)ccc2c1CCCC2C1=NCCN1 (racemic) [Compound A-61603, (±)-N-[5-(4,5-Dihydro-1H-imidazol-2-yl)-2-hydroxy-5,6,7,8-tetra-hydronaphthalen-1-yl]methanesulfonamide] | – | – | 39.8 | – | virtually inactive | 20 | 90 | 10 | – | – |
| CN[C@@H](C)[C@H](O)c1ccccc1 [(-)-ephedrine] | 10000 | 0 | 100 | 20 | – | – | – | – | – | – |
| CNC[C@H](O)c1cccc(O)c1 [(-)-phenylephrine] | – | – | – | – | – | – | – | 90 | 0.9 | – |
| COc1ccc(SC)c2c1C[C@@H]1[C@@H](C2)OCCN1C (relative stereo) [SDZ NVI-085, (±)-trans-4-Methyl-6-methoxy-9-thiomethoxy-3,4,4a, 5,10,10a-hexahydro-2H-naphtho[2,3-b][1,4]oxazine] | – | 0 | – | 0 | – | > 100000 | – | – | – | > 100 |
| COc1ccc(OC)c(C(O)CN)c1 (racemic) [ST-1059, (±)-2-Amino-1-(2, 5 dimethoxyphenyl) ethanol] | 501 | 50 | 6.31 | 10 | – | – | – | – | – | – |
